Assay results taken from PMC2725291, “Genetic and Molecular Basis of Individual Differences in Human Umami Taste Perception” (PLoS ONE, 2009).
Counter-ions that a name gives are not always drawn.

Key:
[1] = system: TAS1R1/TAS1R3 variants; assay: Ca2+ imaging (FlexStation II), comparison across receptor variants (AR, TR, AC, TC); format: cell-based, human; conditions: lactisole 5 mM; 20 mM MSG+0.5 mM IMP; Figure S5
Text: Intronless human TAS1Rs and Gαl6 expression constructs were generated in the pEF-DEST51 Gateway vector (Invitrogen) by genomic DNA-based methods. To subclone each gene into the vector, a Kozak cassette was introduced at the 5′ end before the start codon. Gαl6 chimeras were generated by PCR with mutagenic primers. The carboxyl-terminal tail of Gαl6, five-residue (EINLL) was replaced by its counterpart from Gαi3 (ECGLY; Gα16-i3), Gαgust (DCGLF; Gα16-gust), and Gα16-gust44 was generated as described. The integrity of all DNA constructs was confirmed by DNA sequencing. Point mutations in TAS1Rs were made using the same overlapping PCR strategy with mutagenic primers.
HEK293 cells were cultured at 37°C under a humidified atmosphere containing 5% CO2 in Dulbecco's modified Eagle's medium supplemented with 10% fetal bovine serum. To obtain reproducible Ca^2+ responses, cells were split every 2 days before cells become confluent. Cells were discarded after 2 months of passages and new cells were prepared from frozen-stock. For calcium imaging experiments, cells were seeded onto a 35 mm recording chamber or poly-D-lysine coated 96-well black-wall, clear-bottom recording plates. After 24 hrs at 37°C, confluent cells (60∼70%) were washed in OptiMEM medium supplemented with GlutaMAX-I (invitrogen) and plasmid DNAs were transiently cotransfected into HEK293 cells using Lipofectamine2000 regent (invitrogen) (2.0 µl per 1.0 µg DNA). […]
Student's t-test was used for detection of differences in the mean recognition thresholds between males and females. […] The mean values (the center±S.E. of gaussian curve on X-axis) in the distribution of recognition thresholds defined by TAS1R1/TAS1R3 haplotypes (TAS1R1-372A/TAS1R3-757R homozygotes, TAS1R1-372T/TAS1R3-757R homozygotes, homo- and heterozygotes containing TAS1R3-757C) were calculated using gauss fit function of Origin 5.0 (OriginLab Corp). For Ca^2+ imaging analysis, data were normalized to response to 10 µM ISO, and mean values (±S.E.) were calculated from 10∼18 independent analyses.

[2] = target: T1, TAS1R1-372A and TAS1R3-757R (Homo sapiens, UniProt Q7RTX0+Q7RTX1, C757R); assay: Ca2+ imaging (bath perfusion) in HEK cells transfected with TAS1R1-372A, TAS1R3-757R and Gα16-i3; format: cell-based
T1 construct: expressed in transfected cells; host or cells: HEK293
T1 sequence (Q7RTX1 21-841): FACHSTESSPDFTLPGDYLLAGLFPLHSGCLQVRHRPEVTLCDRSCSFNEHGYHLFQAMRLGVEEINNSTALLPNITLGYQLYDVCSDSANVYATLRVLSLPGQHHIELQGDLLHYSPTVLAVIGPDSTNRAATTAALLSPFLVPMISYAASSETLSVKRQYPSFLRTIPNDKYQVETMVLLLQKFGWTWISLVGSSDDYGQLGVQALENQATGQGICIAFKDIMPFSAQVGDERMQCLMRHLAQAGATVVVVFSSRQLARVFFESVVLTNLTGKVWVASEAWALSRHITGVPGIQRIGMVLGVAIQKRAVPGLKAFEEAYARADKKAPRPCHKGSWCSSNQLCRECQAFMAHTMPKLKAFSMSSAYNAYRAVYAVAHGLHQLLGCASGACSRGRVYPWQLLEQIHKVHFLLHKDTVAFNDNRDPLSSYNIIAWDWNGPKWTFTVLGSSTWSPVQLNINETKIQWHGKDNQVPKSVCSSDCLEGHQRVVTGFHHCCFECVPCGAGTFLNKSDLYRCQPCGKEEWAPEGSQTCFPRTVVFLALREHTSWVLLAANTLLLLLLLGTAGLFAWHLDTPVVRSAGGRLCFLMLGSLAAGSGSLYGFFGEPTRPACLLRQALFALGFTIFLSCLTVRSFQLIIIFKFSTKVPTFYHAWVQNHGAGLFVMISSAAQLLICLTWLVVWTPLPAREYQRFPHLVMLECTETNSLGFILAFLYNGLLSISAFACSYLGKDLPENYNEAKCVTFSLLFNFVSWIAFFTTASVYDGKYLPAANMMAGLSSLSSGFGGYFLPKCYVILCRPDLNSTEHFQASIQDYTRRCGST
T1 sequence (Q7RTX0 21-852 C757R): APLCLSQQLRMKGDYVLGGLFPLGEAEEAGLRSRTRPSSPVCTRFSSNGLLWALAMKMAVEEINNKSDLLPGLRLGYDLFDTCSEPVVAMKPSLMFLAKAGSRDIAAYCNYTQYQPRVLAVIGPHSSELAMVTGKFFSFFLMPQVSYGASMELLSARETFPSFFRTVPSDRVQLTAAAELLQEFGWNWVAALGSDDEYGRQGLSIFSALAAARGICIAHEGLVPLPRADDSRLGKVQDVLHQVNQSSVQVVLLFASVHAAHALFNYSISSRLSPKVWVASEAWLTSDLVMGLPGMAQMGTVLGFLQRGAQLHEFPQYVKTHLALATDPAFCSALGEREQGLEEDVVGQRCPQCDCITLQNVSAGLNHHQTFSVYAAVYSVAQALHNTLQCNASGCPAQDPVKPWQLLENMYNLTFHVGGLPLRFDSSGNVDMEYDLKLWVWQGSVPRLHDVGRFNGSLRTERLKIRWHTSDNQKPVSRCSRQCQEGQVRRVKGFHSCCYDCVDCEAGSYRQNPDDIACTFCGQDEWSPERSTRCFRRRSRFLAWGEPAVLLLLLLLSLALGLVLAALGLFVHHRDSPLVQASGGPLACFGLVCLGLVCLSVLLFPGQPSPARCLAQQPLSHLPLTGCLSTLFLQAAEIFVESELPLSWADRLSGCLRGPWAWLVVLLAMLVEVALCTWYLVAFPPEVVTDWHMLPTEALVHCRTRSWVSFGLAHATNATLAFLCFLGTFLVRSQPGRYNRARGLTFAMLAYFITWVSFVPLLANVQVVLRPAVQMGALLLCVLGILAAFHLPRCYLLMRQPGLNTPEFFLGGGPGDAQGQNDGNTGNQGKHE
Procedure: HEK293 cells were cultured at 37°C under a humidified atmosphere containing 5% CO2 in Dulbecco's modified Eagle's medium supplemented with 10% fetal bovine serum. To obtain reproducible Ca^2+ responses, cells were split every 2 days before cells become confluent. Cells were discarded after 2 months of passages and new cells were prepared from frozen-stock. For calcium imaging experiments, cells were seeded onto a 35 mm recording chamber or poly-D-lysine coated 96-well black-wall, clear-bottom recording plates. After 24 hrs at 37°C, confluent cells (60∼70%) were washed in OptiMEM medium supplemented with GlutaMAX-I (invitrogen) and plasmid DNAs were transiently cotransfected into HEK293 cells using Lipofectamine2000 regent (invitrogen) (2.0 µl per 1.0 µg DNA). TAS1Rs (or their mutants) and Gαl6-i3 were transfected using 1.5 and 1.0 µg of plasmid for 35 mm recording chambers, 0.09 and 0.06 µg of plasmid per well for 96-well plates, respectively. […] Immuno staining and Ca^2+ imaging assays were performed 36∼40 hrs after transfection.
Two Ca^2+ imaging systems were used. A bath perfusion system was used for kinetics of activation. Transfected cells in 35 mm recording chambers were washed in Hank's balanced salt solution (HBSS) containing 10 mM HEPES, pH 7.4, and loaded with 3.0 µM Fluo-4 acetoxymethyl ester (invitrogen) for 1.0 hr at 37°C. The dye-loaded cells were subjected to Ca^2+ imaging. Taste solutions diluted in HBSS were applied sequentially to the cells for 30 s with a peristaltic pump at a flow rate of 1.5 ml/min, and fluorescence images were obtained using a S Fluor ×20/0.75 objective lens (Nikon) via a cooled-CCD camera (C6790, Hamamatsu Photonics) fitted to a TE300 microscope (Nikon). Acquisition and analysis of these fluorescence images used AquaCosmos software (v. 1.3, Hamamatsu Photonics). A 3 min interval was left between each tastant application to ensure that the cells were not desensitized as a result of the previous application of tastants. Responses were measured from 30 individual responding cells. […] Isoproterenol (ISO, 10 µM) was used as positive control, which stimulates endogenous β-adrenergic receptors, providing that the Gα16-dependent signal transduction cascade was functional.

[3] = system: 254 Japanese subjects; assay: Taste recognition threshold measurement (staircase method); format: in vivo, human; conditions: other basic taste stimuli, Figure S1
Text: A total of 254 healthy, non-obese, non-diabetic Japanese volunteers [male/female: 141/113, age: 20–36, body mass index (BMI); 16.5–24.8] participated in this study. The purpose of the study as well as the methods and procedure were explained to the participants and the patients in this manuscript have given written informed consent. All protocols were approved by the local ethics committee at Kyushu University. Subjects were asked to refrain from consuming alcohol the day before testing, caffeine on the day of testing, and food during the experimentation period. The inclusion criteria were satisfactory state of oral hygiene, non-smoking, regular work, sleep, and meal schedules.
As MSG contains sodium, great care was taken to compare individual sensitivities to MSG relative to NaCl. […] The differences in concentrations in the present study were in 0.3 log steps, which mean step-wise increases in concentration by a factor of 2.0. All solutions were made up in distilled water and used at room temperature. The testing procedure was the staircase-method modified from Pasquet et al.. Each subject evaluated all 7 tastants. The seven series of solutions were presented one after another within a single section. Within each series, the solutions with each 2.0 ml were applied to the whole tongue of each subject with a pipet in order of ascending concentrations. The subjects were asked not to swallow test solutions and rinse their mouth between two solutions with distilled water. The subject was requested to correctly name the taste quality in each series. Once the taste of two successive concentrations was recognized successfully, the subject was given the previous unrecognized concentration (first reversal). The points at which concentration sequence changed from a decrease to an increase or vice versa were designated “reversals”. The procedure was terminated after five reversals, and the threshold was calculated as the mean of the concentration values of the last four reversals.
Student's t-test was used for detection of differences in the mean recognition thresholds between males and females. The χ^2 test was used for checking Hardy-Weinberg Equilibrium (HWE) for the genotype frequencies in samples to control genotyping errors, for detection of differences in genotype and allele frequencies between high and low taste recognition threshold groups. Yates'χ^2 test was used when the number was less than 10. The mean values (the center±S.E. of gaussian curve on X-axis) in the distribution of recognition thresholds defined by TAS1R1/TAS1R3 haplotypes (TAS1R1-372A/TAS1R3-757R homozygotes, TAS1R1-372T/TAS1R3-757R homozygotes, homo- and heterozygotes containing TAS1R3-757C) were calculated using gauss fit function of Origin 5.0 (OriginLab Corp). For Ca^2+ imaging analysis, data were normalized to response to 10 µM ISO, and mean values (±S.E.) were calculated from 10∼18 independent analyses. EC50 values were calculated from individual cumulative concentration-response data using sigmoid fit functions of Origin 5.0. One factor ANOVAs were conducted for detection of differences in the distributions of recognition thresholds for umami substances among 3 groups defined by TAS1R1/TAS1R3 haplotypes, and in the responses to 5, 20 and 50 mM MSG or 0.3, 5 and 50 mM M+I among TAS1R1/TAS1R3 variants in Ca^2+ imaging analysis. When the ANOVA was significant, post-hoc Student's t-test or Fisher's PLSD test was performed to compare individual means at each umami compound or concentration. Significance level was 0.05.

COc1ccc(OC(C)C(=O)O)cc1 (stereo not shown) [lactisole]
inhibition effect on the responses of TAS1R1/TAS1R3 variants [1]: clearly observed

OC[C@H]1O[C@@](CO)(O[C@H]2O[C@H](CO)[C@@H](O)[C@H](O)[C@H]2O)[C@@H](O)[C@@H]1O [sucrose]
Ca2+ response of transfected HEK cells ([2]; 50 mM): did not respond
differences in distributions of recognition thresholds among TR, AR and TAS1R3-757C groups [3]: no such differences

OC[C@H]1OC(O)[C@H](O)[C@@H](O)[C@@H]1O (stereo partly shown) [glucose]
Ca2+ response of transfected HEK cells ([2]; 50 mM): did not respond

[Cl-].[Na+] [NaCl]
Ca2+ response of transfected HEK cells ([2]; 50 mM): did not respond
differences in distributions of recognition thresholds among TR, AR and TAS1R3-757C groups [3]: no such differences

O=C1NS(=O)(=O)c2ccccc21 [saccharin]
Ca2+ response of transfected HEK cells ([2]; 1 mM (data not shown)): did not respond

Cl [HCl]
differences in distributions of recognition thresholds among TR, AR and TAS1R3-757C groups [3]: no such differences

NC(=S)Nc1ccccc1 [PTC, phenylthiocarbamide]
differences in distributions of recognition thresholds among TR, AR and TAS1R3-757C groups [3]: no such differences

C[C@H](NC(=NCC(=O)O)Nc1ccc(C#N)cc1)c1ccccc1 [SC45647]
Ca2+ response of transfected HEK cells ([2]; 0.3 mM (data not shown)): did not respond
